Our source for the Ki values is ChEMBL document CHEMBL1133853, “Cyclopenta[g]quinazoline-based antifolates: the effect of the chirality at the 6-position on the inhibition of thymidylate synthase (TS)” (Bioorg Med Chem Lett, 2001).

The target in the experiment is Thymidylate synthase (Mus musculus, UniProt P07607). The experiment is described as follows: Tested for inhibitory activity against thymidylate synthase of L1210 cells. Format: cell-based. As to conditions: read-out: Ki app.
Sequence of Thymidylate synthase (P07607 whole entry): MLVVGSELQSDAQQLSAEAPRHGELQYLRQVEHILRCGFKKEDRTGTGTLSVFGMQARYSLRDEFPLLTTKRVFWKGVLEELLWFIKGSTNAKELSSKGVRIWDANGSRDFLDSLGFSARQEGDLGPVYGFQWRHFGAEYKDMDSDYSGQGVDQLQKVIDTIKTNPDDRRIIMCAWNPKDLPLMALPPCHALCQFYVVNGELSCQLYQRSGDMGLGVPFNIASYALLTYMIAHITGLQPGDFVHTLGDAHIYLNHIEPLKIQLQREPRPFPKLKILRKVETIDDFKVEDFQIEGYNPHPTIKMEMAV
In the case of `C#CCN(c1ccc(C(=O)N[C@@H](CCC(=O)NC(CCC(=O)O)c2nnn[nH]2)C(=O)O)cc1)C1CCc2cc3nc(C)nc(O)c3cc21` (stereo partly specified), the Ki was found to be 0.2 nM.

For `C#CCN(c1ccc(C(=O)N[C@@H](CCCS(=O)(=O)c2nc[nH]n2)C(=O)O)cc1)[C@@H]1CCc2cc3nc(C)nc(O)c3cc21`, the Ki worked out at 1200 nM.

On to `C#CCN(c1ccc(C(=O)N[C@@H](CCCS(=O)(=O)c2nc[nH]n2)C(=O)O)cc1)[C@H]1CCc2cc3nc(C)nc(O)c3cc21`, for which the Ki turned out to be 0.71 nM.

On to `C#CCN(c1ccc(C(=O)N[C@@H](CCC(=O)N[C@H](CCC(=O)O)C(=O)O)C(=O)O)cc1)[C@@H]1CCc2cc3nc(C)[nH]c(=O)c3cc21`, for which the Ki was 3.5 nM.

For `C#CCN(c1ccc(C(=O)N[C@@H](CCC(=O)NC(CCC(=O)O)C(=O)O)C(=O)O)cc1)C1CCc2cc3nc(C)nc(O)c3cc21` (stereo partly specified), the Ki amounted to 0.42 nM.

In the case of `C#CCN(c1ccc(C(=O)N[C@@H](CCC(=O)N[C@H](CCC(=O)O)c2nnn[nH]2)C(=O)O)cc1)[C@@H]1CCc2cc3nc(C)[nH]c(=O)c3cc21`, the Ki is 2.1 nM.
